Laboratory results as given in US10526336B2, “Fused heteroaryl derivatives as orexin receptor antagonists” (Merck Sharp & Dohme Corp., priority 2014, dated 2020).

These molecules were tested against human orexin-2 receptor (Homo sapiens (Human), UniProt O43614) (assay: FLIPR Ca2+ Flux Assay, orexin-2 receptor antagonism in CHO cells). Conditions: CHO cells expressing the human orexin-2 receptor; agonist 70 pM Ala-6,12 orexin-A; read-out: hOX2 FLIPR IC50.
Sequence of human orexin-2 receptor (O43614 whole entry): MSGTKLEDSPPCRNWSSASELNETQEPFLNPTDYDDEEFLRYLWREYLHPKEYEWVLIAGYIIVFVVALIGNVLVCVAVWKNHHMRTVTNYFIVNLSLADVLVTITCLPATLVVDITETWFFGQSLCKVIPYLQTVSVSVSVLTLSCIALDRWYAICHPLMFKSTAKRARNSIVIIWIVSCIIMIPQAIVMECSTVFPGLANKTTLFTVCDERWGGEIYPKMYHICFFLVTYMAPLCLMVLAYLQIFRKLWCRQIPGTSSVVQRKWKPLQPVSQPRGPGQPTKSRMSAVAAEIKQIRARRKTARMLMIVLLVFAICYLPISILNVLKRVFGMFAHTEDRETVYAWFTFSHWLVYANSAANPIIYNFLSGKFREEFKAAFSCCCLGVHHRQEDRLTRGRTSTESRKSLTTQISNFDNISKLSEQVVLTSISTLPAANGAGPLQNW
Format: cell-based
Protocol: The utility of the compounds in accordance with the present invention as orexin receptor OX1R and/or OX2R antagonists may be readily determined without undue experimentation by methodology well known in the art, including the “FLIPR Ca^2+ Flux Assay” (Okumura et al., Biochem. Biophys. Res. Comm. 280:976-981, 2001). In a typical experiment the OX1 and OX2 receptor antagonistic activity of the compounds of the present invention was determined in accordance with the following experimental method. For intracellular calcium measurements, Chinese hamster ovary (CHO) cells expressing the rat orexin-1 receptor or the human orexin-2 receptor, are grown in Iscove's modified DMEM containing 2 mM L-glutamine, […], 1% hypoxanthine-thymidine supplement, 100 U/ml penicillin, 100 μg/ml streptomycin and 10% heat-inactivated fetal calf serum (FCS). The cells are seeded at 20,000 cells/well into Becton-Dickinson black 384-well clear bottom sterile plates coated with poly-D-lysine. All reagents are from GIBCO-Invitrogen Corp. The seeded plates are incubated overnight at 37° C. and 5% CO2. Ala-6,12 human orexin-A as the agonist is prepared as a 1 mM stock solution in 1% bovine serum albumin (BSA) and diluted in assay buffer (HBSS containing 20 mM HEPES, 0.1% BSA and 2.5 mM probenecid, pH7.4) for use in the assay at a final concentration of 70 pM. Test compounds are prepared as 10 mM stock solution in DMSO, then diluted in 384-well plates, first in DMSO, then assay buffer. On the day of the assay, cells are washed 3 times with 100 μl assay buffer and then incubated for 60 min (37° C., 5% CO2) in 60 μl assay buffer containing […] Fluo-4AM ester, 0.02% pluronic acid, and 1% BSA. The dye loading solution is then aspirated and cells are washed 3 times with 100 μl assay buffer. 30 μl of that same buffer is left in each well. Within the Fluorescent Imaging Plate Reader (FLIPR, Molecular Devices), test compounds are added to the plate in a volume of 25 μl, incubated for 5 min and finally 25 μl of agonist is added. Fluorescence is measured for each well at 1 second intervals for 5 minutes and the height of each fluorescence peak is compared to the height of the fluorescence peak induced by 70 pM Ala-6,12 orexin-A with buffer in place of antagonist. For each antagonist, IC50 value (the concentration of compound needed to inhibit 50% of the agonist response) is determined. Alternatively, compound potency can be assessed by a radioligand binding assay (described in Bergman et. al. Bioorg. Med. Chem. Lett. 2008, 18, 1425-1430) in which the inhibition constant (Ki) is determined in membranes prepared from CHO cells expressing either the OX1 or OX2 receptor. The intrinsic orexin receptor antagonist activity of a compound which may be used in the present invention may be determined by these assays.
Molecule `C[C@@H]1CC[C@@H](Oc2nccn3c(C(F)(F)F)cnc23)CN1C(=O)c1ccccc1C1(C#N)CC1` [Example 59, 1-(2-((2R,5R)-2-methyl-5-((3-(trifluoromethyl)imidazo [1,2-α]pyrazin-8-yl)oxy)piperidine-1-carbonyl)phenyl) cyclopropanecarbonitrile] has an IC50 of 0.0128 µM. With `C[C@@H]1CC[C@@H](Nc2nccc3c2ncn3C)CN1C(=O)c1ccccc1-n1nccn1` [Example 101, (2-(2H-1,2,3-triazol-2-yl)phenyl)((2R,5R)-2-methyl-5-((1-methyl-1H-imidazo[4,5-c]pyridin-4-yl)amino)piperidin-1-yl)methanone] the IC50 was 0.0385 µM. `C[C@@H]1CC[C@@H](Nc2nccc3nn(C)cc23)CN1C(=O)c1ccccc1-n1nccn1` [Example 97, (2-(2H-1,2,3-triazol-2-yl)phenyl)((2R,5R)-2-methyl-5-((2-methyl-2H-pyrazolo[4,3-c]pyridin-4-yl)amino)piperidin-1-yl) methanone] was tested, and the IC50 was 0.124 µM. In the case of `Cc1cn2ccnc(O[C@@H]3CC[C@@H](C)N(C(=O)c4cscc4-n4nccn4)C3)c2n1` [Example 8, (4-(2H-1,2,3-triazol-2-yl)thiophen-3-yl)((2R,5R)-2-methyl-5-((2-methylimidazo[1,2-α]pyrazin-8-yl)oxy)piperidin-1-yl)methanone], the IC50 is reported as 0.0391 µM. Molecule `C[C@@H]1CC[C@@H](Nc2nccn3cc(C(F)(F)F)nc23)CN1C(=O)c1ccsc1-n1nccn1` [Example 23, (2-(2H-1,2,3-triazol-2-yl)thiophen-3-yl) ((2R,5R)-2-methyl-5-((2-(trifluoromethyl)imidazo[1,2-α]pyrazin-8-yl)amino)piperidin-1-yl)methanone] has an IC50 of 0.0993 µM. In the case of `C[C@@H]1CC[C@@H](Oc2nccn3c(C(F)(F)F)cnc23)CN1C(=O)c1cccnc1OCC(F)(F)F` [Example 63, ((2R,5R)-2-methyl-5-((3-(trifluoromethyl)imidazo [1,2-α]pyrazin-8-yl)oxy)piperidin-1-yl) (2-(2,2,2-trifluoroethoxy)pyridin-3-yl)methanone], the IC50 is reported as 0.0282 µM. Work on `C[C@@H]1CC[C@@H](Oc2nccn3c(C(F)F)cnc23)CN1C(=O)c1cccnc1OCC(F)(F)F` [Example 50, ((2R,5R)-5-((3-(difluoromethyl)imidazo[1,2-α]pyrazin-8-yl)oxy)-2-methylpiperidin-1-yl)(2-(2,2,2-trifluoroethoxy)pyridin-3-yl)methanone] yielded an IC50 of 0.0265 µM. `Cc1cn2ccnc(O[C@@H]3CC[C@@H](C)N(C(=O)c4ccc(F)cc4-n4nccn4)C3)c2n1` [Example 10, (4-fluoro-2-(2H-1,2,3-triazol-2-yl)phenyl)((2R,5R)-2-methyl-5-((2-methylimidazo[1,2-α]pyrazin-8-yl)oxy)piperidin-1-yl)methanone] showed an IC50 of 0.0312 µM. `C[C@@H]1CC[C@@H](Oc2nccn3nccc23)CN1C(=O)c1cscc1-c1ncccn1` [Example 74, ((2R,5R)-2-methyl-5-(pyrazolo[1,5-α]pyrazin-4-yloxy)piperidin-1-yl)(4-(pyrimidin-2-yl)thiophen-3-yl) methanone] gave an IC50 of 0.0344 µM. In the case of `C[C@@H]1CC[C@@H](Nc2nccn3c(Cl)cnc23)CN1C(=O)c1ccccc1-c1ncccn1` [Example 31, ((2R,5R)-5-((3-chloroimidazo[1,2-a]pyrazin-8-yl)amino)-2-methylpiperidin-1-yl)(2-(pyrimidin-2-yl)phenyl)methanone], the IC50 is reported as 0.0237 µM. `C=Cc1cnc2c(O[C@@H]3CC[C@@H](C)N(C(=O)c4ccccc4-n4nccn4)C3)nccn12` [Example 36, (2-(2H-1,2,3-triazol-2-yl)phenyl)((2R,5R)-2-methyl-5-((3-vinylimidazo[1,2-a]pyrazin-8-yl)oxy)piperidin-1-yl)methanone] was tested, and the IC50 was 0.021 µM. `C[C@@H]1CC[C@@H](Nc2nccn3cc(C(F)(F)F)nc23)CN1C(=O)c1ccccc1-n1nccn1` [Example 22, (2-(2H-1,2,3-triazol-2-yl)phenyl)((2R,5R)-2-methyl-5-((2-(trifluoromethyl)imidazo[1,2-a]pyrazin-8-yl)amino)piperidin-1-yl)methanone] gave an IC50 of 0.0454 µM. For `C[C@@H]1CC[C@@H](Oc2nccn3c(C(F)F)cnc23)CN1C(=O)c1ccsc1-n1nccn1` [Example 40, (2-(2H-1,2,3-triazol-2-yl)thiophen-3-yl)((2R,5R)-5-((3-(difluoromethyl)imidazo[1,2-α]pyrazin-8-yl)oxy)-2-methylpiperidin-1-yl)methanone], the IC50 was 0.0105 µM. `C[C@@H]1CC[C@@H](Oc2nccn3cncc23)CN1C(=O)c1ccccc1-n1nccn1` [Example 102, (2-(2H-1,2,3-triazol-2-yl)phenyl)((2R,5R)-5-(imidazo[1,5-a]pyrazin-8-yloxy)-2-methylpiperidin-1-yl)methanone] showed an IC50 of 0.014 µM. `C[C@@H]1CC[C@@H](Oc2nccn3c(F)cnc23)CN1C(=O)c1ccccc1-n1nccn1` [Example 32, (2-(2H-1,2,3-triazol-2-yl)phenyl)((2R,5R)-5-((3-fluoroimidazo[1,2-a]pyrazin-8-yl)oxy)-2-methylpiperidin-1-yl)methanone] was tested, and the IC50 was 0.0126 µM. With `C[C@@H]1CC[C@@H](Oc2nccn3c(C(F)F)cnc23)CN1C(=O)c1ccc(F)cc1-n1nccn1` [Example 43, ((2R,5R)-5-((3-(difluoromethyl)imidazo[1,2-α]pyrazin-8-yl)oxy)-2-methylpiperidin-1-yl)(4-fluoro-2-(2H-1,2,3-triazol-2-yl)phenyl)methanone] the IC50 was 0.0157 µM. With `C[C@@H]1CC[C@@H](Oc2nccn3c(Cl)cnc23)CN1C(=O)c1ccccc1-n1nccn1` [Example 26, (2-(2H-1,2,3-triazol-2-yl)phenyl)((2R,5R)-5-((3-chloroimidazo[1,2-a]pyrazin-8-yl)oxy)-2-methylpiperidin-1-yl)methanone] the IC50 was 0.0121 µM. `Cc1cn2ccnc(O[C@@H]3CC[C@@H](C)N(C(=O)c4ccccc4-n4ncnn4)C3)c2n1` [Example 11, (2-(2H-tetrazol-2-yl)phenyl)((2R,5R)-2-methyl-5-((2-methylimidazo[1,2-α]pyrazin-8-yl)oxy)piperidin-1-yl)methanone] was tested, and the IC50 was 0.0222 µM. `C[C@@H]1CC[C@@H](Oc2nccn3c(C(F)F)cnc23)CN1C(=O)c1nccnc1-c1ccccn1` [Example 47, ((2R,5R)-5-((3-(difluoromethyl)imidazo[1,2-α]pyrazin-8-yl)oxy)-2-methylpiperidin-1-yl)(3-(pyridin-2-yl)pyrazin-2-yl)methanone] showed an IC50 of 0.0649 µM. With `Cc1cn2ccnc(O[C@@H]3CC[C@@H](C)N(C(=O)c4cccnc4OCC(F)F)C3)c2n1` [Example 15, (2-(2,2-difluoroethoxy)pyridin-3-yl)((2R,5R)-2-methyl-5-((2-methylimidazo[1,2-a]pyrazin-8-yl)oxy)piperidin-1-yl)methanone] the IC50 was 0.0417 µM. With `COC(=O)c1ccccc1C(=O)N1C[C@H](Oc2ccnc3ocnc23)CC[C@H]1C` [Example 93, methyl 2-((2R,5R)-2-methyl-5-(oxazolo[5,4-b]pyridin-7-yloxy)piperidine-1-carbonyl)benzoate] the IC50 was 0.0464 µM. `C[C@@H]1CC[C@@H](Oc2nccn3nccc23)CN1C(=O)c1nccnc1-n1cccn1` [Example 80, (3-(1H-pyrazol-1-yl)pyrazin-2-yl)((2R,5R)-2-methyl-5-(pyrazolo[1,5-α]pyrazin-4-yloxy)piperidin-1-yl)methanone] was tested, and the IC50 was 0.0317 µM. Work on `CC(C)Oc1ncccc1C(=O)N1C[C@H](Oc2nccn3nccc23)CC[C@H]1C` [Example 83, (2-isopropoxypyridin-3-yl)((2R,5R)-2-methyl-5-(pyrazolo[1,5-α]pyrazin-4-yloxy)piperidin-1-yl)methanone] yielded an IC50 of 0.0491 µM. `C[C@@H]1CC[C@@H](Oc2nccn3cc(C#N)nc23)CN1C(=O)c1ccccc1-n1nccn1` [Example 24, 8-(((3R,6R)-1-(2-(2H-1,2,3-triazol-2-yl)benzoyl)-6-methylpiperidin-3-yl)oxy)imidazo[1,2-a]pyrazine-2-carbonitrile] gave an IC50 of 0.0882 µM. With `C[C@@H]1CC[C@@H](Sc2nccn3ccnc23)CN1C(=O)c1ccccc1-n1nccn1` [Example 5, (2-(2H-1,2,3-triazol-2-yl)phenyl)((2R,5R)-5-(imidazo[1,2-a]pyrazin-8-ylthio)-2-methylpiperidin-1-yl)methanone] the IC50 was 0.0103 µM. For `C[C@@H]1CC[C@@H](Oc2nccn3c(Cl)cnc23)CN1C(=O)c1ccccc1-n1ncnn1` [Example 27, (2-(2H-tetrazol-2-yl)phenyl) ((2R,5R)-5-((3-chloroimidazo[1,2-α]pyrazin-8-yl)oxy)-2-methylpiperidin-1-yl)methanone], the IC50 was 0.0091 µM.
